From patent publication US20140051679A1, “KINASE INHIBITORS AND METHOD OF TREATING CANCER WITH SAME” (UNIVERISTY HEALTH NETWORKS, priority 2011, published 2014)

What was measured:
Aurora B = target: T1, Aurora B (Homo sapiens, UniProt Q96GD4); assay: Aurora B inhibition assay (Z-Lyte); assay type: biochemical; conditions: 28 nM Aurora B, 128 μM ATP; read-out: IC50 Ranges Aurora B
T1 construct: purchased Invitrogen PV3970
Experimental: Aurora B inhibition was determined using the Z-Lyte assay kit from Invitrogen. The assay was performed using the recommended manufacturer's instructions with 128 μM ATP and 28 nM Aurora B (Invitrogen cat #PV3970). The % inhibition values were determined according to the manufacturer's directions and IC50 values were obtained using a non-linear 4 point logistic curve fit (XLfit4, IDBS)

[1] = system: OVCAR-3 ovarian cancer cells; assay: Cell growth inhibition, Sulforhodamine B assay, OVCAR-3; assay type: cell-based; conditions: Homo sapiens, 120 h, 5 days culture, SRB assay, read-out: Cell Line GI50 Range OVCAR-3
[2] = system: MDA-MB-231 breast cancer cells; assay: Cell growth inhibition, Sulforhodamine B assay, MDA-MB-231; assay type: cell-based; conditions: Homo sapiens, 120 h, 5 days culture, SRB assay, read-out: Cell Line GI50 Range MDA-MB-231
[3] = system: Colon tumor initiating cells (TICs), 12 colon; assay: Colon tumor-initiating cell growth inhibition (Alamar Blue); assay type: cell-based; conditions: 216 h, 9 days, read-out: GI50 range 12 colon
Description: Materials and Methods: Non-tissue or tissure cultured treated T-75 flask and 96-well plates were purchased from VWR. Vitamin B-27 supplement, MEM NEAA (minimum essential medium non essential amino acids), sodium pyruvate, L-glutamine, N2 supplement, penicillin-streptomycin and fungizone/amphotericin B were obtained from Invitrogen. Lipid mixture, heparin and EGF were purchased from Sigma; bFGF from BD Biosciences. Colon tumor initiating cells (TICs) were routinely maintained using non-tissue cultured treated T-75 flasks in DMEM:F12 medium containing 0.2XB-27 supplement, 4 ug/ml heparin, 1XMEM NEAA, 1× sodium pyruvate, 1 mM glutamine, 10 pg/ul bFGF, 20 pg/ul EGF, 1×N2 supplement, lipid mixture, penicillin-streptomycin and fungizone/amphotericin B. Ovarian TICs were routinely maintained using tissue cultured treated T-75 flasks in DMEM:F12 medium containing 1XB-27 supplement, 4 ug/ml heparin, 20 pg/ul bFGF, 20 pg/ul EGF and penicillin-streptomycin.
Compounds described herein were dissolved in DMSO and further diluted in cell culture medium for GI50 determination. Colon TICs were trypsinized and seeded into non-tissue cultured treated 96-well plates with 4,000 cells/well. After 24 h, compound was added into the cell culture at different concentrations, and the final concentration of DMSO was adjusted to 0.1%. Cells were then cultured at 37° C. for 9 days. Ovarian TICs were trypsinized and seeded into tissue cultured treated 96-well plates with 1,000 cells/well. After 24 h, compound was added into the cell culture at different concentrations, and the final concentration of DMSO was adjusted to 0.1%. Cells were then cultured at 37° C. for 6 days. Cell viability was assessed by Alamar Blue assay: 10 ul of Alamar Blue was added into each well. After 4 hours incubation at 37° C., fluorescence was recorded at excitation 544 and emission 590. GI50 (Growth inhibition) was calculated using GraphPad Prism 4.0 software.

human TTK = target: T2, human TTK (Homo sapiens, UniProt P33981); assay: TTK inhibition assay (indirect ELISA); assay type: biochemical; conditions: GST-TTK 0.68 nM, 16 μM ATP; read-out: IC50 Ranges TTK
T2 construct: amino terminal GST fusion of full length human TTK; purchased Invitrogen
T2 sequence (P33981 1-857): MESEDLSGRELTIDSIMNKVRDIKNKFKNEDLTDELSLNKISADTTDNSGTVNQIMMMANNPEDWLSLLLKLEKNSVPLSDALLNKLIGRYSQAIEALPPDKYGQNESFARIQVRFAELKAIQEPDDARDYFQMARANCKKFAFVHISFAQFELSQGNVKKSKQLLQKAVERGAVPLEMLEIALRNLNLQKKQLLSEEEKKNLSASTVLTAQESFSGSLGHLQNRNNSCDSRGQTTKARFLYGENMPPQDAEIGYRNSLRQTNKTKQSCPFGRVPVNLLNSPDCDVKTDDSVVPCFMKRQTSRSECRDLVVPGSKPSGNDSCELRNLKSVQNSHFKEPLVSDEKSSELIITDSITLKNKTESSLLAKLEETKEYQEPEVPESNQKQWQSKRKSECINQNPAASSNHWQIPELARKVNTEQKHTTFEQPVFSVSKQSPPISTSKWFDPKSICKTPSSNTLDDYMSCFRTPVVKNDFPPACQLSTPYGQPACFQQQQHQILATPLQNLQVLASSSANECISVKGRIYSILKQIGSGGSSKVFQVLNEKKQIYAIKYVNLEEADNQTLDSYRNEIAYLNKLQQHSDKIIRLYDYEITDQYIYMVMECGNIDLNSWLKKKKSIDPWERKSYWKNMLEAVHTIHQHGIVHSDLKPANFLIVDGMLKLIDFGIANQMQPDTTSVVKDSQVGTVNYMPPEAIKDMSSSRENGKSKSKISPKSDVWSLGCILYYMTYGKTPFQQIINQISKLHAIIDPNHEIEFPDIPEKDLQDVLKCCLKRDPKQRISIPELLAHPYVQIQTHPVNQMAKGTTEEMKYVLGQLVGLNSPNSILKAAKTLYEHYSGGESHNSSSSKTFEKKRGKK

[4] = system: PA-1 ovarian cancer cells; assay: Cell growth inhibition, Sulforhodamine B assay, PA-1; assay type: cell-based; conditions: 120 h, 5 days culture, SRB assay, read-out: Cell Line GI50 Range PA-1
[5] = system: HCT116 colon cancer cells; assay: Cell growth inhibition, Sulforhodamine B assay, HCT116; assay type: cell-based; conditions: Homo sapiens, HCT-116, 120 h, 5 days culture, SRB assay, read-out: Cell Line GI50 Range HCT116
HT29 colon cancer cells = assay: Cell growth inhibition, Sulforhodamine B assay, HT29; assay type: cell-based; conditions: Homo sapiens, HT-29, 120 h, 5 days culture, SRB assay, read-out: Cell Line GI50 Range HT29
Experimental: Breast cancer cells (MDA-MB-231, MDA-MB-468), colon cancer cells (HCT116, HT29) and ovarian cancer cells (PA-1, OVCAR-3) were seeded (1000 to 4000 in 80 μl per well depending on the cell growth rate) into 96 well plates 24 hours before compound overlay. Compounds were prepared as 10 mM stock solutions in 100% DMSO which were diluted with DMEM (Dulbecco's Modified Eagle's Medium) cell growth Medium (Invitrogen, Burlington, ON, Canada) containing 10% FBS (Fetal Bovine Serum) to concentrations ranging from 50 nM to 250 μM. Aliquots (20 μl) from each concentration were overlaid to 80 μl of the pre-seeded cells in the 96 well plates to make final concentrations of 10 nM to 50 μM. The cells were cultured for 5 days before the Sulforhodamine B assay (SRB) was performed to determine the compound's cell growth inhibition activity.
Sulforhodamine B (purchased from Sigma, Oakville, ON, Canada) is a water-soluble dye that binds to the basic amino acids of the cellular proteins. Thus, colorimetric measurement of the bound dye provides an estimate of the total protein mass that is related to the cell number. the cells are fixed in situ by gently aspirating off the culture media and adding 50 μl ice cold 10% Trichloroacetic Acid (TCA) per well and incubate at 4° C. for 30-60 min, The plates are washed with water five times and allowed to air dry for 5 min. Addition of 50 μl 0.4% (w/v) SRB solution in 1% (v/v) acetic acid to each well and incubatation for 30 min at RT completes the staining reaction. Following staining, plates are washed four times with 1% acetic acid to remove unbound dye and then allowed to air dry for 5 min. The stain is solubilized with 100 μl of 10 mM Tris pH 10.5 per well. Absorbance is read at 570 nm.
The percentage (%) of relative growth inhibition was calculated by comparing to DMSO treated only cells (100%). […] The GI50 was calculated using GraphPad PRISM software (GraphPad Software, Inc., San Diego, Calif., USA).

[6] = system: Ovarian TICs, 2393A ovarian; assay: Ovarian tumor-initiating cell growth inhibition (Alamar Blue); assay type: cell-based; conditions: 144 h, 6 days, read-out: GI50 range 2393A ovarian
[7] = system: MDA-MB-468 breast cancer cells; assay: Cell growth inhibition, Sulforhodamine B assay, MDA-MB-468; assay type: cell-based; conditions: Homo sapiens, 120 h, 5 days culture, SRB assay, read-out: Cell Line GI50 Range MDA-MB-468
human PLK4 = target: T3, human PLK4 (Homo sapiens, UniProt O00444); assay: PLK4 inhibition assay (indirect ELISA); assay type: biochemical; conditions: GST-PLK4 4 nM, 15 μM ATP; read-out: IC50 Ranges PLK4
T3 construct: amino terminal GST fusion of residues 1-391 of human PLK4; made in house; host or cells: E. coli
T3 sequence (O00444 1-391): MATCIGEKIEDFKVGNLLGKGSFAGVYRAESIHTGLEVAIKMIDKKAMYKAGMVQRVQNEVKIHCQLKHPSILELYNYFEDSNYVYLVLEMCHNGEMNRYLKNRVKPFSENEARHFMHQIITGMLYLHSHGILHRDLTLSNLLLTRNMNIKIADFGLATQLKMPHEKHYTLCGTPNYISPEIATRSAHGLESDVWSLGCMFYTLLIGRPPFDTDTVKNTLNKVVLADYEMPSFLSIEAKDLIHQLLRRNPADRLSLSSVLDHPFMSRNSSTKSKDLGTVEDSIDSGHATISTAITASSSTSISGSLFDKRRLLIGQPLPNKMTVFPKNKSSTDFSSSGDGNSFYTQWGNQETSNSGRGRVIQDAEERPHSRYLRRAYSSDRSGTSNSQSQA
Method in brief: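 Dephosphorylated GST-tagged human PLK4 (residues 1-391, E. coli), 4 nM, preincubated 15 min with compound, then reacted 30 min with 15 μM ATP on MBP-coated plates (50 mM HEPES pH 7.5, 10 mM MgCl2, 0.01% Brij 35). Phospho-MBP detected by antibody ELISA at 450 nm. Tested at 10 μM or 10-point titrations; IC50 from 4-parameter logistic fit.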

T1 sequence (Q96GD4 whole entry): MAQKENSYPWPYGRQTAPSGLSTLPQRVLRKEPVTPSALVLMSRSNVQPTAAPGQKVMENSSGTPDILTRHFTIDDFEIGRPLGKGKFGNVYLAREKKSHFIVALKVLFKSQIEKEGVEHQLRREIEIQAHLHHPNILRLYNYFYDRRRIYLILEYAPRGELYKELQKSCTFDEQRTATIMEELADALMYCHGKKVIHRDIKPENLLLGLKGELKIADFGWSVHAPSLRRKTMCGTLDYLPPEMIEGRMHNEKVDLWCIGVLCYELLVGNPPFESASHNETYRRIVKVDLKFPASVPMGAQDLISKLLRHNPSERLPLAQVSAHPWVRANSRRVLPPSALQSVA

CN1CCC(Oc2ccc(-c3n[nH]c4ccc(NC(=O)C(c5cccs5)N5CCCC5)cc34)cc2)CC1 (stereo not drawn) [Example A91, N-(3-(4-((1-methylpiperidin-4-yl)oxy)phenyl)-1H-indazol-5-yl)-2-(pyrrolidin-1-yl)-2-(thiophen-2-yl)acetamide]
IC50 (Aurora B): ≤ 5 µM | GI50 [1]: ≤ 5 µM | GI50 [2]: ≤ 5 µM | GI50 [3]: ≤ 5 µM | IC50 (human TTK): ≤ 5 µM | GI50 [4]: ≤ 5 µM | GI50 [5]: ≤ 5 µM | GI50 (HT29 colon cancer cells): ≤ 5 µM | GI50 [6]: ≤ 5 µM | GI50 [7]: ≤ 5 µM | IC50 (human PLK4): ≤ 5 µM

COCCN1CCC(Oc2ccc(-c3n[nH]c4ccc(C(=O)NC(c5ccccc5)C5CC5)cc34)cc2)CC1 (stereo not drawn) [Example A98, N-(cyclopropyl(phenyl)methyl)-3-(4-((1-(2-methoxyethyl)piperidin-4-yl)oxy)phenyl)-1H-indazole-5-carboxamide]
IC50 (Aurora B): ≤ 5 µM | GI50 [1]: ≤ 5 µM | GI50 [2]: ≤ 5 µM | GI50 [3]: ≤ 5 µM | IC50 (human TTK): ≤ 5 µM | GI50 [4]: ≤ 5 µM | GI50 [5]: ≤ 5 µM | GI50 (HT29 colon cancer cells): ≤ 5 µM | GI50 [6]: ≤ 5 µM | GI50 [7]: ≤ 5 µM | IC50 (human PLK4): ≤ 5 µM

CN1CCC(Oc2ccc(-c3n[nH]c4ccc(C(=O)NC(c5ccsc5)C5CCCC5)cc34)cc2)CC1 (stereo not drawn) [Example A110, N-(cyclopentyl(thiophen-3-yl)methyl)-3-(4-((1-methylpiperidin-4-yl)oxy)phenyl)-1H-indazol-5-carboxamide]
IC50 (Aurora B): ≤ 5 µM | GI50 [1]: ≤ 5 µM | GI50 [2]: ≤ 5 µM | GI50 [3]: ≤ 5 µM | IC50 (human TTK): ≤ 5 µM | GI50 [4]: ≤ 5 µM | GI50 [5]: ≤ 5 µM | GI50 (HT29 colon cancer cells): ≤ 5 µM | GI50 [6]: ≤ 5 µM | GI50 [7]: ≤ 5 µM | IC50 (human PLK4): ≤ 5 µM

CC[C@@H](NC(=O)c1ccc2[nH]nc(-c3ccc(OC4CCN(CCOC)CC4)cc3)c2c1)c1ccccc1Cl [Example A128, (R)—N-(1-(2-chlorophenyl)propyl)-3-(4-((1-(2-methoxyethyl)piperidin-4-yl)oxy)phenyl)-1H-indazole-5-carboxamide]
IC50 (Aurora B): ≤ 5 µM | GI50 [1]: ≤ 5 µM | GI50 [2]: ≤ 5 µM | GI50 [3]: ≤ 5 µM | IC50 (human TTK): ≤ 5 µM | GI50 [4]: ≤ 5 µM | GI50 [5]: ≤ 5 µM | GI50 (HT29 colon cancer cells): ≤ 5 µM | GI50 [6]: ≤ 5 µM | GI50 [7]: ≤ 5 µM | IC50 (human PLK4): ≤ 5 µM

Cc1ccccc1C(NC(=O)c1ccc2[nH]nc(-c3ccc(OC4CCN(C)CC4)cc3)c2c1)C1CC1 (stereo not drawn) [Example A132, N-(cyclopropyl(o-tolyl)methyl)-3-(4-((1-methylpiperidin-4-yl)oxy)phenyl)-1H-indazole-5-carboxamide]
IC50 (Aurora B): ≤ 5 µM | GI50 [1]: ≤ 5 µM | GI50 [2]: ≤ 5 µM | GI50 [3]: ≤ 5 µM | IC50 (human TTK): ≤ 5 µM | GI50 [4]: ≤ 5 µM | GI50 [5]: ≤ 5 µM | GI50 (HT29 colon cancer cells): ≤ 5 µM | GI50 [6]: ≤ 5 µM | GI50 [7]: ≤ 5 µM | IC50 (human PLK4): ≤ 5 µM

Cc1ccccc1C(C(=O)Nc1ccc2[nH]nc(-c3ccc(OC4CCN(C)CC4)cc3)c2c1)N1CCCC1 (stereo not drawn) [Example A133, N-(3-(4-((1-methylpiperidin-4-yl)oxy)phenyl)-1H-indazol-5-yl)-2-(pyrrolidin-1-yl)-2-(o-tolyl)acetamide]
IC50 (Aurora B): ≤ 5 µM | GI50 [1]: ≤ 5 µM | GI50 [2]: ≤ 5 µM | GI50 [3]: ≤ 5 µM | IC50 (human TTK): ≤ 5 µM | GI50 [4]: ≤ 5 µM | GI50 [5]: ≤ 5 µM | GI50 (HT29 colon cancer cells): ≤ 5 µM | GI50 [6]: ≤ 5 µM | GI50 [7]: ≤ 5 µM | IC50 (human PLK4): ≤ 5 µM

C[C@@H](NC(=O)c1ccc2[nH]nc(-c3ccc(OC4CCN(C)CC4)cc3)c2c1)c1ccccc1F [Example A134, (R)—N-(1-(2-fluorophenyl)ethyl)-3-(4-((1-methylpiperidin-4-yl)oxy)phenyl)-1H-indazole-5-carboxamide]
IC50 (Aurora B): ≤ 5 µM | GI50 [1]: 5 to 20 µM | GI50 [2]: ≤ 5 µM | GI50 [3]: ≤ 5 µM | IC50 (human TTK): ≤ 5 µM | GI50 [4]: ≤ 5 µM | GI50 [5]: ≤ 5 µM | GI50 (HT29 colon cancer cells): ≤ 5 µM | GI50 [6]: ≤ 5 µM | GI50 [7]: ≤ 5 µM | IC50 (human PLK4): ≤ 5 µM

CN1CCC(Oc2ccc(-c3n[nH]c4ccc(C(=O)NC(c5ccccc5)C5CCCCC5)cc34)cc2)CC1 (stereo not drawn) [Example A170, N-(cyclohexyl(phenyl)methyl)-3-(4-((1-methylpiperidin-4-yl)oxy)phenyl)-1H-indazole-5-carboxamide]
GI50 [1]: ≤ 5 µM | GI50 [2]: ≤ 5 µM | GI50 [3]: ≤ 5 µM | IC50 (human TTK): ≤ 5 µM | GI50 [4]: ≤ 5 µM | GI50 [5]: ≤ 5 µM | GI50 (HT29 colon cancer cells): ≤ 5 µM | GI50 [6]: ≤ 5 µM | GI50 [7]: ≤ 5 µM | IC50 (human PLK4): ≤ 5 µM

COC[C@@H](NC(=O)c1ccc2[nH]nc(-c3ccc(OC4CCN(C)CC4)cc3)c2c1)c1ccccc1 [Example A173, (S)—N-(2-methoxy-1-phenylethyl)-3-(4-((1-methylpiperidin-4-yl)oxy)phenyl)-1H-indazole-5-carboxamide]
GI50 [1]: 5 to 20 µM | GI50 [2]: ≤ 5 µM | GI50 [3]: ≤ 5 µM | IC50 (human TTK): ≤ 5 µM | GI50 [4]: ≤ 5 µM | GI50 [5]: ≤ 5 µM | GI50 (HT29 colon cancer cells): ≤ 5 µM | GI50 [6]: ≤ 5 µM | GI50 [7]: ≤ 5 µM | IC50 (human PLK4): ≤ 5 µM

CN1CCC(Oc2ccc(-c3n[nH]c4ccc(NC(=O)C(c5ccsc5)N5CCC5)cc34)cc2)CC1 (stereo not drawn) [Example A191, 2-(azetidin-1-yl)-N-(3-(4-((1-methylpiperidin-4-yl)oxy)phenyl)-1H-indazol-5-yl)-2-(thiophen-3-yl)acetamide]
IC50 (Aurora B): ≤ 5 µM | GI50 [1]: ≤ 5 µM | GI50 [2]: ≤ 5 µM | GI50 [3]: ≤ 5 µM | IC50 (human TTK): ≤ 5 µM | GI50 [4]: ≤ 5 µM | GI50 [5]: ≤ 5 µM | GI50 [6]: ≤ 5 µM | GI50 [7]: ≤ 5 µM | IC50 (human PLK4): ≤ 5 µM

CC[C@H](NC(=O)c1ccc2[nH]nc(-c3ccc(OC4CCN(C5COC5)CC4)cc3)c2c1)c1ccccc1Cl [Example A193, (S)—N-(1-(2-chlorophenyl)propyl)-3-(4-((1-(oxetan-3-yl)piperidin-4-yl)oxy)phenyl)-1H-indazole-5-carboxamide]
IC50 (Aurora B): ≤ 5 µM | GI50 [1]: ≤ 5 µM | GI50 [2]: ≤ 5 µM | GI50 [3]: ≤ 5 µM | IC50 (human TTK): ≤ 5 µM | GI50 [4]: ≤ 5 µM | GI50 [5]: ≤ 5 µM | GI50 [6]: ≤ 5 µM | GI50 [7]: ≤ 5 µM | IC50 (human PLK4): ≤ 5 µM
